From ChEMBL document CHEMBL5375994, “Advances in Development of Selective Antitumor Inhibitors That Target PARP-1” (J Med Chem, 2023)

Tests used:
[1] = target: Poly [ADP-ribose] polymerase 2 (Homo sapiens, UniProt Q9UGN5); experiment: Inhibition of PARP-2 (unknown origin)
[2] = target: Poly [ADP-ribose] polymerase 1 (Homo sapiens, UniProt P09874); experiment: Inhibition of human recombinant PARP-1
Chain of Poly [ADP-ribose] polymerase 1 (P09874 whole entry): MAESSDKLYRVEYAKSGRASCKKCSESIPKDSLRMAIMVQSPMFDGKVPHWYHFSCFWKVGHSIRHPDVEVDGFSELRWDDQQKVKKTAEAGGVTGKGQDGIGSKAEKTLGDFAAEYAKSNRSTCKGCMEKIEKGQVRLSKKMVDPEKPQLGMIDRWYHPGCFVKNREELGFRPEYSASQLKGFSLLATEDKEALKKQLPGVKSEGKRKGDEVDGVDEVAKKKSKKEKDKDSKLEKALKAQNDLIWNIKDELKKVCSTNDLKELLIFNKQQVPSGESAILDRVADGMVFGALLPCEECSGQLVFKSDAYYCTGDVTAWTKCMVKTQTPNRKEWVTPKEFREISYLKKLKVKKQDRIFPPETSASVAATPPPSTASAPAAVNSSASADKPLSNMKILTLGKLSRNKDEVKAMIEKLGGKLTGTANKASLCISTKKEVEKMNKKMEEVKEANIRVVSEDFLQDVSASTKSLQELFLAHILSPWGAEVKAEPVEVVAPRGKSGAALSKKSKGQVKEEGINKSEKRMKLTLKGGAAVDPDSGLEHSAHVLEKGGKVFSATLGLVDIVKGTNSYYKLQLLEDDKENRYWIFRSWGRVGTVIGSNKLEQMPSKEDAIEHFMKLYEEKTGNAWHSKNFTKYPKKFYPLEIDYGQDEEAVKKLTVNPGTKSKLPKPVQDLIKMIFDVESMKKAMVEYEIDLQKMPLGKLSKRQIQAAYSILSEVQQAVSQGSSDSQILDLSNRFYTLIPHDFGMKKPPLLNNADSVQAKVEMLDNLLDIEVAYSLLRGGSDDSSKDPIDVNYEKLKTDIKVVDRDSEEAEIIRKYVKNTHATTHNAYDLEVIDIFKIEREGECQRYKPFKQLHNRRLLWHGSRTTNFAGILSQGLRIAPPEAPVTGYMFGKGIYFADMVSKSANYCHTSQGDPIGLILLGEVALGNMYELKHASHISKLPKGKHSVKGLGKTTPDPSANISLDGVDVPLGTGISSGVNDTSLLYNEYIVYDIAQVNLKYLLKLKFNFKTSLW

Chain of Poly [ADP-ribose] polymerase 2 (Q9UGN5 whole entry): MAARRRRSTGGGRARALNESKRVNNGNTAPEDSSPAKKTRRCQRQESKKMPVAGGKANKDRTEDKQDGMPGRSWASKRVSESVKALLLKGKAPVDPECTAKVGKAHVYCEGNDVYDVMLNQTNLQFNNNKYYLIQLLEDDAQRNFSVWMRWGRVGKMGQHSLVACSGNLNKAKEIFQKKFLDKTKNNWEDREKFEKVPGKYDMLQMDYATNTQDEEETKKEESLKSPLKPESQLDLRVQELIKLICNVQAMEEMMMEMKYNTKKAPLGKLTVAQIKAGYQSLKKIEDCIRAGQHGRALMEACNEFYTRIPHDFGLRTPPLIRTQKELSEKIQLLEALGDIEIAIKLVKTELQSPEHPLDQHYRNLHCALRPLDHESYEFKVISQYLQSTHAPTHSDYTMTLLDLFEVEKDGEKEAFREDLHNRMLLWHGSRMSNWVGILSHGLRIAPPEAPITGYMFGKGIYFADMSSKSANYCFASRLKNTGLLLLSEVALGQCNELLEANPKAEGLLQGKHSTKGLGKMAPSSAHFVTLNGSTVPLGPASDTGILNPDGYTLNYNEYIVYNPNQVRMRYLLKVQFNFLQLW

Row | SMILES | IC50 [1] [nM] | IC50 [2] [nM]
1 | O=c1[nH]c(CCCN2CCC(c3ccccc3)CC2)nc2c(Cl)cccc12 | 610 | 23
2 | O=c1[nH]c(CCCN2CCN(c3ccccc3)CC2)nc2cccc(Cl)c12 | 300 | 11
3 | N#Cc1ccc(C2CCN(CCCc3nc4c(Cl)cccc4c(=O)[nH]3)CC2)cc1 | 87 | 3
4 | Cc1cccc2c(=O)[nH]c(CCCN3CCC(c4ccc(F)cc4)CC3)nc12 | 167 | 16
5 | O=c1[nH]c(CCCN2CCC(c3ccccc3)CC2)nc2cccc(Cl)c12 | 630 | 68
6 | O=c1[nH]c(CCCN2CCC(c3ccccc3)CC2)nc2ccccc12 | 608 | 21
7 | O=c1[nH]c(CCCN2CCC(c3ccc(F)cc3)CC2)nc2c(Cl)cccc12 | 500 | 13
